Species on record: Rattus norvegicus
Assay: DrugMatrix - Regimen: Daily Repeat
Type: toxicity, organism-based, Sprague-Dawley
Design: regimen Daily Repeat, gender Male, age 6-8 weeks
Settings: in vivo, po, route oral GAVAGE, vehicle .5 % CMC; for ABSOLUTE BASOPHIL / ABSOLUTE EOSINOPHIL / ABSOLUTE LYMPHOCYTE / ABSOLUTE MONOCYTE / ABSOLUTE SEGMENTED NEUTROPHIL / BASOPHIL / EOSINOPHIL / ERYTHROCYTE COUNT / HEMATOCRIT / HEMOGLOBIN / LEUKOCYTE COUNT / LYMPHOCYTE / MEAN CORPUSCULAR HEMOGLOBIN / MEAN CORPUSCULAR HEMOGLOBIN CONCENTRATION / MEAN CORPUSCULAR VOLUME / MONOCYTE / NEUTROPHIL / NUCLEATED RED BLOOD CELLS / PLATELET COUNT: tissue Blood; for ALANINE AMINOTRANSFERASE / ALBUMIN / ALKALINE PHOSPHATASE / ASPARTATE AMINOTRANSFERASE / BLOOD UREA NITROGEN / CARBON DIOXIDE / CHLORIDE / CHOLESTEROL / CREATINE PHOSPHOKINASE / CREATININE / GLUCOSE / LACTATE DEHYDROGENASE / LIPASE / PHOSPHORUS / POTASSIUM / SODIUM / TOTAL BILIRUBIN / TOTAL PROTEIN / URIC ACID: tissue Plasma
[1] = 34 mg/kg, 72 h, dose level Low, time 3 day
[2] = 34 mg/kg, 120 h, dose level Low, time 5 day
[3] = 364 mg/kg, 72 h, dose level High, time 3 day
[4] = 364 mg/kg, 120 h, dose level High, time 5 day

SMILES: Cc1cccc(Nc2cc(Cl)nc(SCC(=O)O)n2)c1C [PIRINIXIC ACID]
- ABSOLUTE BASOPHIL [1]: 0 CELLS/uL
- ABSOLUTE EOSINOPHIL [1]: 24.33 CELLS/uL
- ABSOLUTE LYMPHOCYTE [1]: 9231.67 CELLS/uL
- ABSOLUTE MONOCYTE [1]: 145 CELLS/uL
- ABSOLUTE SEGMENTED NEUTROPHIL [1]: 1199 CELLS/uL
- BASOPHIL [1]: 0%
- EOSINOPHIL [1]: 0.33%
- ERYTHROCYTE COUNT [1]: 5.01 x10E6/uL
- HEMATOCRIT [1]: 31.77%
- HEMOGLOBIN [1]: 11.67 G/DL
- LEUKOCYTE COUNT [1]: 10.6 x10E3/uL
- LYMPHOCYTE [1]: 85.67%
- MEAN CORPUSCULAR HEMOGLOBIN [1]: 23.3 pg
- MEAN CORPUSCULAR HEMOGLOBIN CONCENTRATION [1]: 36.7 G/DL
- MEAN CORPUSCULAR VOLUME [1]: 63.5 fL
- MONOCYTE [1]: 1.67%
- NEUTROPHIL [1]: 12.33%
- NUCLEATED RED BLOOD CELLS [1]: 0 /100WBC
- PLATELET COUNT [1]: 1123.33 x10E3/uL
- ALANINE AMINOTRANSFERASE [1]: 55.67 u/L
- ALBUMIN [1]: 4.73 G/DL
- ALKALINE PHOSPHATASE [1]: 457.33 u/L
- ASPARTATE AMINOTRANSFERASE [1]: 87.33 u/L
- BLOOD UREA NITROGEN [1]: 13.33 mg/dL
- CARBON DIOXIDE [1]: 36.67 mmol/L
- CHLORIDE [1]: 100.33 MEQ/L
- CHOLESTEROL [1]: 52.67 mg/dL
- CREATINE PHOSPHOKINASE [1]: 447.33 u/L
- CREATININE [1]: 0.17 mg/dL
- GLUCOSE [1]: 140 mg/dL
- LACTATE DEHYDROGENASE [1]: 140 u/L
- LIPASE [1]: 8 u/L
- PHOSPHORUS [1]: 12.6 mg/dL
- POTASSIUM [1]: 6.61 MEQ/L
- SODIUM [1]: 143.77 MEQ/L
- TOTAL BILIRUBIN [1]: 0.1 mg/dL
- TOTAL PROTEIN [1]: 5.83 G/DL
- URIC ACID [1]: 0.87 mg/dL
- ABSOLUTE BASOPHIL [2]: 0 CELLS/uL
- ABSOLUTE EOSINOPHIL [2]: 0 CELLS/uL
- ABSOLUTE LYMPHOCYTE [2]: 7298 CELLS/uL
- ABSOLUTE MONOCYTE [2]: 306 CELLS/uL
- ABSOLUTE SEGMENTED NEUTROPHIL [2]: 1029.33 CELLS/uL
- BASOPHIL [2]: 0%
- EOSINOPHIL [2]: 0%
- ERYTHROCYTE COUNT [2]: 5.39 x10E6/uL
- HEMATOCRIT [2]: 34.73%
- HEMOGLOBIN [2]: 13.23 G/DL
- LEUKOCYTE COUNT [2]: 8.63 x10E3/uL
- LYMPHOCYTE [2]: 84.33%
- MEAN CORPUSCULAR HEMOGLOBIN [2]: 24.57 pg
- MEAN CORPUSCULAR HEMOGLOBIN CONCENTRATION [2]: 38.13 G/DL
- MEAN CORPUSCULAR VOLUME [2]: 64.5 fL
- MONOCYTE [2]: 3.67%
- NEUTROPHIL [2]: 12%
- NUCLEATED RED BLOOD CELLS [2]: 0 /100WBC
- PLATELET COUNT [2]: 1176.33 x10E3/uL
- ALANINE AMINOTRANSFERASE [2]: 55 u/L
- ALBUMIN [2]: 4.63 G/DL
- ALKALINE PHOSPHATASE [2]: 445.33 u/L
- ASPARTATE AMINOTRANSFERASE [2]: 92.67 u/L
- BLOOD UREA NITROGEN [2]: 10 mg/dL
- CARBON DIOXIDE [2]: 27.67 mmol/L
- CHLORIDE [2]: 105 MEQ/L
- CHOLESTEROL [2]: 39.67 mg/dL
- CREATINE PHOSPHOKINASE [2]: 609.67 u/L
- CREATININE [2]: 0.19 mg/dL
- GLUCOSE [2]: 179 mg/dL
- LACTATE DEHYDROGENASE [2]: 166.33 u/L
- LIPASE [2]: 9.33 u/L
- PHOSPHORUS [2]: 13.63 mg/dL
- POTASSIUM [2]: 5.28 MEQ/L
- SODIUM [2]: 147.67 MEQ/L
- TOTAL BILIRUBIN [2]: 0.0333 mg/dL
- TOTAL PROTEIN [2]: 6.17 G/DL
- URIC ACID [2]: 1.6 mg/dL
- ABSOLUTE BASOPHIL [3]: 0 CELLS/uL
- ABSOLUTE EOSINOPHIL [3]: 0 CELLS/uL
- ABSOLUTE LYMPHOCYTE [3]: 6159.33 CELLS/uL
- ABSOLUTE MONOCYTE [3]: 64.67 CELLS/uL
- ABSOLUTE SEGMENTED NEUTROPHIL [3]: 442.67 CELLS/uL
- BASOPHIL [3]: 0%
- EOSINOPHIL [3]: 0%
- ERYTHROCYTE COUNT [3]: 5.12 x10E6/uL
- HEMATOCRIT [3]: 32.3%
- HEMOGLOBIN [3]: 11.83 G/DL
- LEUKOCYTE COUNT [3]: 6.67 x10E3/uL
- LYMPHOCYTE [3]: 92.33%
- MEAN CORPUSCULAR HEMOGLOBIN [3]: 23.17 pg
- MEAN CORPUSCULAR HEMOGLOBIN CONCENTRATION [3]: 36.63 G/DL
- MEAN CORPUSCULAR VOLUME [3]: 63.17 fL
- MONOCYTE [3]: 1%
- NEUTROPHIL [3]: 6.67%
- NUCLEATED RED BLOOD CELLS [3]: 0 /100WBC
- PLATELET COUNT [3]: 1033.67 x10E3/uL
- ALANINE AMINOTRANSFERASE [3]: 53.33 u/L
- ALBUMIN [3]: 4.73 G/DL
- ALKALINE PHOSPHATASE [3]: 564 u/L
- ASPARTATE AMINOTRANSFERASE [3]: 87 u/L
- BLOOD UREA NITROGEN [3]: 12.67 mg/dL
- CARBON DIOXIDE [3]: 35.33 mmol/L
- CHLORIDE [3]: 102.33 MEQ/L
- CHOLESTEROL [3]: 49.67 mg/dL
- CREATINE PHOSPHOKINASE [3]: 282.33 u/L
- CREATININE [3]: 0.2 mg/dL
- GLUCOSE [3]: 142.33 mg/dL
- LACTATE DEHYDROGENASE [3]: 143.67 u/L
- LIPASE [3]: 8.67 u/L
- PHOSPHORUS [3]: 12.8 mg/dL
- POTASSIUM [3]: 6.58 MEQ/L
- SODIUM [3]: 147.03 MEQ/L
- TOTAL BILIRUBIN [3]: 0.1 mg/dL
- TOTAL PROTEIN [3]: 5.67 G/DL
- URIC ACID [3]: 1 mg/dL
- ABSOLUTE BASOPHIL [4]: 0 CELLS/uL
- ABSOLUTE EOSINOPHIL [4]: 0 CELLS/uL
- ABSOLUTE LYMPHOCYTE [4]: 6969 CELLS/uL
- ABSOLUTE MONOCYTE [4]: 193.33 CELLS/uL
- ABSOLUTE SEGMENTED NEUTROPHIL [4]: 904.33 CELLS/uL
- BASOPHIL [4]: 0%
- EOSINOPHIL [4]: 0%
- ERYTHROCYTE COUNT [4]: 5.24 x10E6/uL
- HEMATOCRIT [4]: 32.1%
- HEMOGLOBIN [4]: 12.47 G/DL
- LEUKOCYTE COUNT [4]: 8.07 x10E3/uL
- LYMPHOCYTE [4]: 87.33%
- MEAN CORPUSCULAR HEMOGLOBIN [4]: 23.8 pg
- MEAN CORPUSCULAR HEMOGLOBIN CONCENTRATION [4]: 38.8 G/DL
- MEAN CORPUSCULAR VOLUME [4]: 61.27 fL
- MONOCYTE [4]: 2.33%
- NEUTROPHIL [4]: 10.33%
- NUCLEATED RED BLOOD CELLS [4]: 0 /100WBC
- PLATELET COUNT [4]: 1189 x10E3/uL
- ALANINE AMINOTRANSFERASE [4]: 57 u/L
- ALBUMIN [4]: 5 G/DL
- ALKALINE PHOSPHATASE [4]: 591 u/L
- ASPARTATE AMINOTRANSFERASE [4]: 173 u/L
- BLOOD UREA NITROGEN [4]: 15.33 mg/dL
- CARBON DIOXIDE [4]: 35 mmol/L
- CHLORIDE [4]: 101.67 MEQ/L
- CHOLESTEROL [4]: 56.67 mg/dL
- CREATINE PHOSPHOKINASE [4]: 895.67 u/L
- CREATININE [4]: 0.17 mg/dL
- GLUCOSE [4]: 139.67 mg/dL
- LACTATE DEHYDROGENASE [4]: 272.67 u/L
- LIPASE [4]: 9 u/L
- PHOSPHORUS [4]: 11.73 mg/dL
- POTASSIUM [4]: 6.36 MEQ/L
- SODIUM [4]: 146.87 MEQ/L
- TOTAL BILIRUBIN [4]: 0.0667 mg/dL
- TOTAL PROTEIN [4]: 6.1 G/DL
- URIC ACID [4]: 1.1 mg/dL
